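Test compounds were applied to cells in 96-well plates for 48 hours at 5 doses. GI50: concentration for 50% inhibition of growth. At the TGI there is no net growth.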 A value given as a limit tells only on which side of the number the result lay.

Experimental findings from PubChem BioAssay (NCI) are described below.

Test in all cases: growth of human tumour cells (NCI), 48 h
Assay [1] has as its system NCI/ADR-RES ovarian.
For assay [2], the system named is PC-3 prostate.
The test system of assay [3] is MDA-MB-231 breast.
Assay [4] relates to M14 melanoma.
Assay [5] concerns HCT-15 colon.
Assay [6] relates to HOP-62 NSCLC.
The test system of assay [7] is SR leukemia.
Assay [8] deals with K-562 leukemia.
In assay [9] the test system is SF-539 CNS.
The subject of assay [10] is RXF 393 renal.

For `COc1ccc(-c2nc(-c3ccccn3)c(-c3ccccn3)n2CC(C)C)cc1OC1CCCC1`, the GI50 in [1] was 6960 nM; in assay [2], 11100 nM; in assay [3], 18200 nM; in [4], 22700 nM; in [5] it was 6720 nM; in assay [6], 15300 nM. The figures for the GI50 in assay [7], in [8] and in assay [9] were 7770 nM, 6370 nM and 33800 nM, respectively. Besides, the TGI in assay [1] is over 165 µM; in assay [2], 83.8 µM; in [3] it was 125 µM; in assay [4], 114 µM; in assay [5], over 165 µM; in assay [6], over 165 µM. Further, the figures for the TGI in [7], in [8] and in [9] were 49.2 µM, over 165 µM and 99.7 µM, respectively.

For the molecule `CN(C)c1ccc(Nc2c3ccccc3nc3cc(NC(=O)CCN4CCCC4)ccc23)cc1`, the GI50 was 2910 nM in [1]; 577 nM in [2]; 1230 nM in [3]; 692 nM in assay [4]; 816 nM in [5]; 235 nM in [6]. Further, the GI50 in [7] is 42.1 nM; in assay [9], 650 nM; in assay [10] it was 466 nM. Also, the TGI in assay [1] was found to be 12.9 µM; in [2], 2.17 µM; in assay [3] it was 2.92 µM; in [4], 2 µM; in assay [5] it was 2.2 µM; in [6], 1.56 µM. Further, the TGI worked out at 1.24 µM in assay [7], 1.92 µM in assay [9] and 1.69 µM in assay [10].

With `COc1ccc(C(=O)/C=C/c2cc(-c3ccc4c(c3)OCO4)n[nH]2)cc1OC`, the GI50 in assay [2] is 2580 nM; in [3], 2440 nM; in [4], 6360 nM; in assay [5] it was 2810 nM; in [6], 2080 nM; in [7] it was 1270 nM. Also, the figures for the GI50 in assay [8], in [9] and in assay [10] were 2470 nM, 1910 nM and 2420 nM, respectively. Moreover, the TGI is 18.2 µM in assay [2]; 7.39 µM in [3]; 21.4 µM in assay [4]; over 100 µM in assay [5]; 5.6 µM in [6]; 6.48 µM in assay [7]. In addition, the TGI in assay [8] came out at 16.7 µM; in assay [9], 4.47 µM; in assay [10] it was 5.39 µM.

In the case of `COc1ccc2c(c1)[nH]c(=O)c1c3cc(OC)c(OC)cc3cn21`, the GI50 in [1] was under 10 nM; in assay [2], under 10 nM; in assay [3], 21.9 nM; in assay [4] it was under 10 nM; in [5], under 10 nM; in assay [6], 93.6 nM. In addition, the GI50 in assay [7] is under 10 nM; in assay [9] it was 17.5 nM; in assay [10], under 10 nM. Moreover, the TGI in [1] was under 0.0133 µM; in assay [2], 1.6 µM; in assay [3], 1.06 µM; in assay [4] it was 11.8 µM; in assay [5] it was 1.19 µM; in assay [6], 21 µM. Further, the figures for the TGI in assay [7], in [9] and in assay [10] were 0.0961 µM, 0.0618 µM and 1.89 µM, respectively.

As for `CN(C)C(=S)/N=c1\ss/c(=N\C(=S)N(C)C)n1Cc1ccco1`, the TGI in [4], in assay [5], in assay [6], in assay [7], in assay [8] and in [9] was over 100 µM each time. This molecule also gave a TGI in assay [10] of over 100 µM.

On to `Cn1nc2ccc3nccc(NCCNCCO)c3c2n1`, for which the TGI in assay [4], in assay [5], in [6], in assay [7], in assay [8] and in assay [9] was over 100 µM each time. In assay [10], this molecule gave a TGI of 87.5 µM.

In the case of `COc1ccc(/C=C\c2cc(OC)c(OC)c(OC)c2)cc1OCC(=O)Nc1nc2ccccc2s1`, the GI50 is 183 nM in assay [2]; 179 nM in assay [3]; 52.7 nM in assay [4]; 51.9 nM in assay [5]; 298 nM in assay [6]; 36.3 nM in [7]. The GI50 in assay [8] was 42.3 nM; in assay [9], 187 nM; in assay [10] it was 50.3 nM. Moreover, the TGI in assay [2], in assay [3], in [4], in assay [5], in [6] and in assay [7] was over 100 µM throughout. The results for the TGI in assay [8], in assay [9] and in [10] were over 100 µM, over 100 µM and 79.9 µM, respectively.

In the case of `Cc1cccc(C(C)C)c1NC(=O)CCl`, the TGI is over 100 µM in assay [4]; over 100 µM in [5]; 98.8 µM in assay [6]; over 100 µM in assay [7]; over 100 µM in assay [8]; over 100 µM in assay [9]. The TGI in assay [10] is 75.5 µM.

With `CCOC(OCC)C(CC)[Se]c1ccccc1` (configuration not stated), the TGI is 93.7 µM in [4]; 35 µM in [5]; over 100 µM in [6]; 47.7 µM in [7]; over 100 µM in assay [8]; over 100 µM in [9]. In assay [10], this molecule returned a TGI of over 100 µM.

On to `COc1cc(C(O)C(=O)c2cnc3cc([N+](=O)[O-])ccc3n2)ccc1O` (configuration not stated), for which the TGI in assay [4], in assay [5], in assay [6], in assay [7], in [8] and in assay [9] was over 100 µM throughout. Moreover, the TGI in [10] was over 100 µM.

Take `COc1ccc(N=Nc2c(-c3ccccc3)nn(C(=O)CC(=O)Nc3ccccc3Cl)c2-c2ccccc2)cc1`: the TGI in [4] is over 100 µM; in [5], over 100 µM; in assay [6], over 100 µM; in assay [7] it was 11.3 µM; in [8], over 100 µM; in assay [9] it was over 100 µM. The molecule further yielded a TGI in assay [10] of over 100 µM.
